Data: patent publication US20240239765A1, “GLYCINE N-METHYLTRANSFERASE SPECIFIC ENHANCER AND PREPARATION METHOD AND USES THEREOF” (KAOHSIUNG MEDICAL UNIVERSITY, priority 2020, published 2024)
pIC50: −log10 of the molar value. Blank lines part the entries; values can stand above or below the compound they belong to.

Assays:
Huh7 and HepG2 cells = assay: Colony formation assay; assay type: cell-based, Human
p21 mRNA = p21 mRNA expression in Huh7 cells (qRT-PCR); assay type: cell-based, Human; settings: after K117 treatment
Description: (§1) RNA was isolated by using Trizol reagent (Life Technologies) according to the manufacturer's protocol. Cellular RNA was reverse transcribed into complementary DNA using a SuperScript II RNase H-Reverse Transcriptase Kit (Life Technologies). PCR reactions were carried out using a Super Script II Reverse Transcriptase Kit (Invitrogen Inc., Carlsbad, CA, USA) on an Applied Biosystems Step-One-plus real-time PCR system (Applied Biosystems, Foster City, CA, USA). The mRNA level of TATA-box binding protein (TBP) was used as an internal control. The primer pairs used for qRT-PCR were: • TBP forward: SEQ ID NO: 1, • reverse: SEQ ID NO: 2, • MYC forward: SEQ ID NO: 3, • reverse: SEQ ID NO: 4, • p21 forward: SEQ ID NO: 5, • reverse: SEQ ID NO: 6, • p27 forward: SEQ ID NO: 7, • reverse: SEQ ID NO: 8, • GNMT forward: SEQ ID NO: 9, and • reverse: SEQ ID NO: 10.

DU145 = assay: Cell viability, prostate cancer cell line DU145; assay type: cell-based; settings: Homo sapiens, DU-145
MYC protein = MYC protein in Huh7 xenograft tumors (immunoblotting); assay type: in vivo; settings: Huh7 xenograft tumors of treated mice
Description: (§2) Cells or xenograft tumors were harvested for lysate preparation by using RIPA buffer containing protease inhibitor cocktail (Roche Molecular Biochemicals) and phosphatase inhibitors (10 mM Na3VO4, 1 mM NaF, 5 mM NaPPi). Protein concentrations were quantified by Bio-Rad Protein Assay (Bio-Rad) and immunoblotting was carried out as previous description (Yen et al., 2012). Anti-MYC (D84C12, Cell Signaling Technology), anti-GNMT (YMAC-Bioteck) and anti-β-actin (AC-15, Sigma-Aldrich) antibodies were used according to the descriptions in manufacturer's instructions.
All animal experiments were reviewed and approved by the Institutional Animal Care and Use Committee of Kaohsiung Medical University, and performed in accordance with relevant guidelines. Five to six-week-old male NOD-SCID mice were subcutaneously injected with Huh7 cells (1×10^6) in the right flank. Upon detection of palpable tumor, mice were randomly grouped and treated with 300 mpk, 100 mpk or 25 mpk of LKY4606D or KYT5397 and drug vehicle orally every day for 28 days. For K117, doses of 10 mpk and 25 mpk were used. For Sorafenib, dose of 25 mpk was used. Tumor growth was monitored (every day or three times per week) by measuring the length (L) and the width (W) of the tumor using Vernier caliper. Tumor volume (TV) was calculated by using the formula: volume=(L×W^2)/2. […]

p27 mRNA = p27 mRNA expression in Huh7 cells (qRT-PCR); assay type: cell-based, Human; settings: after K117 treatment
Description: as §1

[1] = system: −1812/+14 GNMT promoter-luciferase reporter cell line H7GPL; assay: GNMT induction capacity assay (GNMT promoter-luciferase reporter, H7GPL cells); assay type: cell-based, Human; settings: for Relative Luciferase Activity (induction capacity): H7GPL cells
Description: A −1812/+14 GNMT promoter-luciferase reporter cell line H7GPL was constructed. For the primary analysis, H7GPL cells seeded in 96-well plates were treated with individual drugs of 10 μM for 24 hours and then were lysed for the luciferase activity assay using Luciferase Assay System (Promega, Madison, WI, USA). Then, the secondary analysis was performed using the compounds with different doses. The same confirmed hits were used for cytotoxicity by using alamarBlue® reagent (AbD serotec, Oxford, UK). The cytotoxicity was measured according to the manufacturer's recommendation. Top hits were used for further studies.

PANC1 = assay: Cell viability, pancreatic cancer cell line PANC1; assay type: cell-based; settings: Homo sapiens, PANC-1; PANC1, pancreas
Description: (§3) Human liver cancer cell lines (Huh7 and HepG2), human pancreatic cancer cell line (PANC1) and prostate cancer cell line (PC3) were cultured in Dulbecco's modified Eagle's medium (DMEM) supplemented with 10% fetal bovine serum (FBS) (HyClone, Logan, UT, USA), L-glutamine (2 mM), streptomycin (100 μg/mL), penicillin (100 U/mL) and nonessential amino acids (0.1 mM). Human pancreatic cancer cell line BxPC3 was cultured in the medium of Roswell Park Memorial Institute (RPMI) 1640 with the same supplements as in DMEM. All cell lines were maintained at 37 °C in a humidified CO2 incubator. H7GPL stable cells established by lentiviral-system was grown in DMEM supplemented with 1 μg/mL puromycin. The sorafenib were purchased from Sigma-Aldrich (St Louis, MO, USA).
(§4) Huh7, HepG2, PANC1, PC3, and BxPC3 cells were seeded in 96-well plates for 24 hours and exposed to the drugs with various concentrations. AlamarBlue® was added in to the cells and further incubated for 4 hours to assess the cytotoxic effect of the tested drugs. Blank wells (without cells) containing the same amount of test substances were used for background subtraction, and the relative number of viable cells were represented as the percentage of the mean of the relative solvent controls. AlamarBlue® assay (AbD Serotec, Oxford, UK) was used to assess cell viability according to the manufacturer's instructions.

Huh7 xenograft tumor = assay type: in vivo
Excerpt: All animal experiments were reviewed and approved by the Institutional Animal Care and Use Committee of Kaohsiung Medical University, and performed in accordance with relevant guidelines. Five to six-week-old male NOD-SCID mice were subcutaneously injected with Huh7 cells (1×10^6) in the right flank. Upon detection of palpable tumor, mice were randomly grouped and treated with 300 mpk, 100 mpk or 25 mpk of LKY4606D or KYT5397 and drug vehicle orally every day for 28 days. For K117, doses of 10 mpk and 25 mpk were used. For Sorafenib, dose of 25 mpk was used. Tumor growth was monitored (every day or three times per week) by measuring the length (L) and the width (W) of the tumor using Vernier caliper. Tumor volume (TV) was calculated by using the formula: volume=(L×W^2)/2. All drugs were dissolved in 0.5% carboxymethyl cellulose sodium salt.

PC3 = assay: Cell viability, prostate cancer cell line PC3; assay type: cell-based; settings: Homo sapiens, PC-3
Description: as §3, §4

GNMT protein = assay: Endogenous GNMT protein in Huh7 cells (immunoblotting); assay type: cell-based, Human
Description: as §2

MYC mRNA = MYC mRNA expression in Huh7 cells (qRT-PCR); assay type: cell-based, Human
Description: as §1

BxPC3 = assay: Cell viability, pancreatic cancer cell line BxPC3; assay type: cell-based; settings: Homo sapiens, BXPC-3; BxPC3, pancreas
Description: as §3, §4

GNMT mRNA = assay: Endogenous GNMT mRNA in Huh7 cells (qRT-PCR); assay type: cell-based, Human
Description: as §1

[2] = system: liver cancer cell lines (Huh7, Hep3B, HepG2); assay: Cell proliferation in liver cancer cell lines; assay type: cell-based, Human
Description: as §4

GNMT expression / MYC = settings: pathogenesis of liver cancer, known; cited from earlier work

pIC50 (DU145): 4.39
pIC50 (PANC1): 5.66
pIC50 (PC3): 4.82
pIC50 (BxPC3): 5.92
SMILES: C/C(=N\NC(=O)c1cccnc1N)c1ccccn1 [K117, N′-(1-(pyridin-2-yl)ethylidene)-2-carbohydrazide]
Colony formation (Huh7 and HepG2 cells): reduced the colony formation of Huh7 and HepG2 cells in a dose-dependent manner
p21 mRNA expression (p21 mRNA): increased
MYC protein expression in xenograft tumors (MYC protein): reduced
p27 mRNA expression (p27 mRNA): increased
Relative Luciferase Activity (induction capacity) ([1]; 5.0 μM): 6.52 ± 0.12
Relative Luciferase Activity (induction capacity) ([1]; 10 μM): 10.36 ± 0.35
Induction of GNMT expression compared with K78 ([1]; SAR study): more effective than K78
Induction of luciferase activity / GNMT promoter activity ([1]; dose response (FIG. 2B, 4B)): induced GNMT promoter activity in a dose-dependent manner
Tumor growth versus control group (Huh7 xenograft tumor; K117 10 mpk and 25 mpk): significant tumor growth reduction
Tumor growth effect compared with Sorafenib (Huh7 xenograft tumor; K117 10 mpk vs Sorafenib 25 mpk): same effect as Sorafenib 25 mpk
Endogenous GNMT expression at protein level (GNMT protein): induced
MYC mRNA expression (MYC mRNA): suppressed c-Myc mRNA expression dose-dependently
Endogenous GNMT expression at mRNA level (GNMT mRNA): induced
Proliferation of liver cancer cells [2]: inhibited proliferation of all tested liver cancer cells in a dose-dependent manner

SMILES: O=C(OC[C@H]1O[C@@H](OC(=O)c2cc(O)c(O)c(O)c2)[C@H](OC(=O)c2cc(O)c(O)c(O)c2)[C@@H](OC(=O)c2cc(O)c(O)c(O)c2)[C@@H]1OC(=O)c1cc(O)c(O)c(O)c1)c1cc(O)c(O)c(O)c1 [PGG, 1,2,3,4,6-penta-O-galloyl-Beta-D-glucopyranoside]
GNMT expression / MYC regulation (GNMT expression / MYC): enhanced GNMT expression through MYC downregulation

SMILES: CNC(=O)c1cc(Oc2ccc(NC(=O)Nc3ccc(Cl)c(C(F)(F)F)c3)cc2)ccn1 [Sorafenib, sorafenib, reference compound]
Tumor growth versus solvent control (Huh7 xenograft tumor; oral, K78 25, 100, 300 mpk, sorafenib comparison control): most significant difference
